From ChEMBL document CHEMBL1201862, “PubChem BioAssay data set” (2004)
Active and inactive are the calls of the source.

Assays:
[1] = LGR2 antagonists, dose response, cell-based, HEK293, CRE-luciferase reporter, cherry pick, set 2 (AID 743343); type: functional;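 further: transfected cells were stimulated with diluted bursicon conditioned medium after compound addition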
[2] = HepG2 cell cytotoxicity, dose response, cytotoxicity control, plate reader, cherry-pick, antagonist series (AID 743416); type: functional, cell-based
Estrogen receptor = biological target: T1, Estrogen receptor (Homo sapiens, UniProt P03372); experiment: potentiators of ERα–SRC-1 coactivator binding, dose response, biochemical, TR-FRET, ERα LBD (AID 737)
T1 sequence (P03372 whole entry): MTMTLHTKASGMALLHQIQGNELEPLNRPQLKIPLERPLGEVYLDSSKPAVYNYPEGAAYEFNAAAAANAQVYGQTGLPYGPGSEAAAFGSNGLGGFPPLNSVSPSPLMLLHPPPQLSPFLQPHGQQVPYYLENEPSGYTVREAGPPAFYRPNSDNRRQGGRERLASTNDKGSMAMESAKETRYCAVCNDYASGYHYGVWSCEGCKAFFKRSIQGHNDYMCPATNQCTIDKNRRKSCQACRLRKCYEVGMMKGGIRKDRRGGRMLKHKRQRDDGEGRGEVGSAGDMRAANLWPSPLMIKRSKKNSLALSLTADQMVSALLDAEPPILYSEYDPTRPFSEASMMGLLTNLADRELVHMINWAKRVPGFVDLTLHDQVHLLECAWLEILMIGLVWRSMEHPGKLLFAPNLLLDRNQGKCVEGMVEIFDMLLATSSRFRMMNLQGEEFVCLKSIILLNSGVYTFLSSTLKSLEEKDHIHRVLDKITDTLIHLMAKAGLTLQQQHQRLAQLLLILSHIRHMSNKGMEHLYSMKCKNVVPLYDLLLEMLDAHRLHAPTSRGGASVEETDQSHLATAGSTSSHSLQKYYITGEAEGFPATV

[3] = MC4R antagonists, dose response, counter-screen for LGR2 antagonist project, cell-based, plate reader, cherry pick (AID 743444); type: functional;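 further: transfected HEK 293 cells stimulated with alpha-MSH peptide; potency of inhibitors of the alpha-MSH evoked signal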
[4] = HEK293 cell cytotoxicity, dose response, cytotoxicity control, plate reader, cherry-picked samples (AID 743446); type: functional, cell-based
Bcl-2-like protein 10 = biological target: T2, Bcl-2-like protein 10 (Homo sapiens, UniProt Q9HD36); experiment: Biochemical TR3 FP assay of Bcl-B inhibitor potency, EC50 (AID 1243); type: functional
T2 sequence (Q9HD36 whole entry): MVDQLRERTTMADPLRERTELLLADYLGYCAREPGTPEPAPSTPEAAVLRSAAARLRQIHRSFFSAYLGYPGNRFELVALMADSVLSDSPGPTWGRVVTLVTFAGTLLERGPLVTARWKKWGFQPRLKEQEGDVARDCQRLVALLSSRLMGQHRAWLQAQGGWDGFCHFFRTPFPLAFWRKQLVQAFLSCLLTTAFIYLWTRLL

HeLa = experiment: Cytotoxicity counterscreen assay for transcriptional activators of heat shock protein 70 (Hsp70). [Related pubchem assays: 1203, 1252 ]; type: functional; details: Homo sapiens;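 further: cells exposed to compound for 16 hours before readout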
[5] = growth suppression of PTEN-null colon cells, dose response, cell-based, HCT116 PTEN knockout (AID 1047); type: functional;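 further: HCT116 colon tumor cells with PTEN knocked out; cells exposed to compound for 60 hours before readout; potency for loss of cell viability measured by luminescence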
[6] = biological target: T3, Replicative DNA helicase DnaB (Mycobacterium tuberculosis, UniProt P9WMR3); experiment: DnaB intein splicing inhibitors, dose response, biochemical, cell-free fluorescence (AID 449749); type: functional
T3 sequence (P9WMR3 whole entry): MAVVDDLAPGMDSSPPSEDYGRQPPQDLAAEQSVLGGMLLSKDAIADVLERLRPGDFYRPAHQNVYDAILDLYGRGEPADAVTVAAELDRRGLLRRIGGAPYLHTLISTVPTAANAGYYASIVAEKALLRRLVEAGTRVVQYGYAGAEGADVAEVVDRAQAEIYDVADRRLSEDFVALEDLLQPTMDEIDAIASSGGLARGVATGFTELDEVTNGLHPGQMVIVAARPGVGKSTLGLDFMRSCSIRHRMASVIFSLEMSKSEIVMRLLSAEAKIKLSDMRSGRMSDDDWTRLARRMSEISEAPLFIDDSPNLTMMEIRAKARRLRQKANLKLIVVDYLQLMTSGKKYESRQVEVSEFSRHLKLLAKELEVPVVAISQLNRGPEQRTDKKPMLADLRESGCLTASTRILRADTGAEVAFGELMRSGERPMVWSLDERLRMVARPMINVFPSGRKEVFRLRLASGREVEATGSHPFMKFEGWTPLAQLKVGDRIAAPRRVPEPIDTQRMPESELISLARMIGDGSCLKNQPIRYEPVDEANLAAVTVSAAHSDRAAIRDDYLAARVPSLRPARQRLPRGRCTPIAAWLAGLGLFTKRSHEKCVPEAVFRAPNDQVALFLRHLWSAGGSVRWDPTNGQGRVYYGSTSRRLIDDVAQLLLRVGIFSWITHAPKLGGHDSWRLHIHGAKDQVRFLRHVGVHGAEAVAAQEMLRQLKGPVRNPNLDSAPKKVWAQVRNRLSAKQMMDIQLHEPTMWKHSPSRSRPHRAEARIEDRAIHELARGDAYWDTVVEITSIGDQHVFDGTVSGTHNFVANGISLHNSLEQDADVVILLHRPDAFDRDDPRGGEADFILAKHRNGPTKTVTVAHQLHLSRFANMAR

[7] = growth suppression of beta-catenin-knockout colon cells, dose response, cell-based, HCT116, human colon tumor (AID 1045); type: functional;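 further: HCT116 colon tumor cells with beta catenin knocked out; cells exposed to compound for 60 hours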
Protein RecA = biological target: T4, Protein RecA (Mycobacterium tuberculosis, UniProt P9WHJ3); experiment: Fluorescence Cell-Free Homogeneous Dose Retest to Identify Inhibitors of RecA-Intein Splicing Activity. [Related pubchem assays (depositor defined):AID2097, AID2223, AID489010, AID492950]; type: functional
T4 sequence (P9WHJ3 whole entry): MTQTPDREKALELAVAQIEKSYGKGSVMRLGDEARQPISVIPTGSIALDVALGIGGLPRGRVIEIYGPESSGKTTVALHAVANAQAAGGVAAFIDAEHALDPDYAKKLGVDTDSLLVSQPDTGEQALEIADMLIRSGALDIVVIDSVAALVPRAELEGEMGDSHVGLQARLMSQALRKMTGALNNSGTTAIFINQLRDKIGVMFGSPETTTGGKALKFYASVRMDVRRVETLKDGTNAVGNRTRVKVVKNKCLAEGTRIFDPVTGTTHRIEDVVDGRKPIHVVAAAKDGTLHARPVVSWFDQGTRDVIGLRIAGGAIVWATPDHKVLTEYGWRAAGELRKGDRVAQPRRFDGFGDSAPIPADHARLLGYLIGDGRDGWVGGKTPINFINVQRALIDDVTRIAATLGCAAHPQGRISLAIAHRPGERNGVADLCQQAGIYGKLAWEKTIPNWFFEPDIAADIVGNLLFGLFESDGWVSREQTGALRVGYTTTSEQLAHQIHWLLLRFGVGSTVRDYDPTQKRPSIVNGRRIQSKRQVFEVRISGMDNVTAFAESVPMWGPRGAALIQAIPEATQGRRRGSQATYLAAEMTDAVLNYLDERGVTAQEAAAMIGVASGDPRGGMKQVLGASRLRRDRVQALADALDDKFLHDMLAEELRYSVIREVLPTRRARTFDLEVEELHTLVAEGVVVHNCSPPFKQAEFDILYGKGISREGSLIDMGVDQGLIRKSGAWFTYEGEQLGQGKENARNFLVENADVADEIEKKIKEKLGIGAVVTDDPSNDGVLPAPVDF

[8] = biological target: T5, High affinity choline transporter 1 (Homo sapiens, UniProt Q9GZV3); experiment: CHT inhibitors, dose response, cell-based, 5-point CRC, membrane potential dye (AID 504840); type: functional
T5 sequence (Q9GZV3 whole entry): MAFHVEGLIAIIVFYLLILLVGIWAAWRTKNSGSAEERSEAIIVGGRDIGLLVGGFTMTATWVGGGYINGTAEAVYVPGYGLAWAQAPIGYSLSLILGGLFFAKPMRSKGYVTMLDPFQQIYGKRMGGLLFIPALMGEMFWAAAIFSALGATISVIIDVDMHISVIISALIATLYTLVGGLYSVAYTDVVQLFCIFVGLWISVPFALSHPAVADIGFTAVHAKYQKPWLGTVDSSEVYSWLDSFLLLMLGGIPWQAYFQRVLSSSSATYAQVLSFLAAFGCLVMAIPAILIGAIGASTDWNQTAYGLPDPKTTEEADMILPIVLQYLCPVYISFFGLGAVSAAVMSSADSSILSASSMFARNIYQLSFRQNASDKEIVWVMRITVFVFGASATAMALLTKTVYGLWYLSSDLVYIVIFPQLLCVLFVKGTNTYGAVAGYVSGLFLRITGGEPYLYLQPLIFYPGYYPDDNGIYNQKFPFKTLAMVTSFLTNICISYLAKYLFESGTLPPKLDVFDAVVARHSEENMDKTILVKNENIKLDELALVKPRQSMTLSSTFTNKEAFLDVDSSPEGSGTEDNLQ

Aspartyl aminopeptidase = Aspartyl aminopeptidase (Plasmodium falciparum 3D7, UniProt Q8I2J3)
Procathepsin L = Procathepsin L (Homo sapiens, UniProt P07711)
Cytochrome P450 3A4 = Cytochrome P450 3A4 (Homo sapiens, UniProt P08684); details: Potency;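 further: confirmatory qHTS run detecting inhibitors and substrates of CYP3A4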
Sequence of Cytochrome P450 3A4 (P08684 whole entry): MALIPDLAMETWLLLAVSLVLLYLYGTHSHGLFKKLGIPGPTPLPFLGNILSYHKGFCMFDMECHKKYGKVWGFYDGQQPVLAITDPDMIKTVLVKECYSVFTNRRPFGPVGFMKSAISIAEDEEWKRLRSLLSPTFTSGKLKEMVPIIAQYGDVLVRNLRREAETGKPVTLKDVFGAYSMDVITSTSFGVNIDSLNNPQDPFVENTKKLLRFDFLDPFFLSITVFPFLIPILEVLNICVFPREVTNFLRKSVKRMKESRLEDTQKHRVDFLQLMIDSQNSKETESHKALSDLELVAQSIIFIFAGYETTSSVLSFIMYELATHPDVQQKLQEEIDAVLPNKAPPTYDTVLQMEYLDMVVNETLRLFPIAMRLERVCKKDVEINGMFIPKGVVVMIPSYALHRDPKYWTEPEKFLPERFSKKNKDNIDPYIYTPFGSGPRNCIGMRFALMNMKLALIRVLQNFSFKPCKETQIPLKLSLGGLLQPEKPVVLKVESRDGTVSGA

Sequence of Procathepsin L (P07711 whole entry): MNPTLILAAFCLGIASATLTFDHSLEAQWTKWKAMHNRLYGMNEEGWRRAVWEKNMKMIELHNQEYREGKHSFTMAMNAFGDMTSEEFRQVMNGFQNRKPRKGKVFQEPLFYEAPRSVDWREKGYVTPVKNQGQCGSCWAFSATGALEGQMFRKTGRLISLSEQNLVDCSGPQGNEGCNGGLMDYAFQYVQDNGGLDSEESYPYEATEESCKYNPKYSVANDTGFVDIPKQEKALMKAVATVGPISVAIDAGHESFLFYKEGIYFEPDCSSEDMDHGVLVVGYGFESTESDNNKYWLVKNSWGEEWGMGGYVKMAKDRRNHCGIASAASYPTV
Sequence of Aspartyl aminopeptidase (Q8I2J3 whole entry): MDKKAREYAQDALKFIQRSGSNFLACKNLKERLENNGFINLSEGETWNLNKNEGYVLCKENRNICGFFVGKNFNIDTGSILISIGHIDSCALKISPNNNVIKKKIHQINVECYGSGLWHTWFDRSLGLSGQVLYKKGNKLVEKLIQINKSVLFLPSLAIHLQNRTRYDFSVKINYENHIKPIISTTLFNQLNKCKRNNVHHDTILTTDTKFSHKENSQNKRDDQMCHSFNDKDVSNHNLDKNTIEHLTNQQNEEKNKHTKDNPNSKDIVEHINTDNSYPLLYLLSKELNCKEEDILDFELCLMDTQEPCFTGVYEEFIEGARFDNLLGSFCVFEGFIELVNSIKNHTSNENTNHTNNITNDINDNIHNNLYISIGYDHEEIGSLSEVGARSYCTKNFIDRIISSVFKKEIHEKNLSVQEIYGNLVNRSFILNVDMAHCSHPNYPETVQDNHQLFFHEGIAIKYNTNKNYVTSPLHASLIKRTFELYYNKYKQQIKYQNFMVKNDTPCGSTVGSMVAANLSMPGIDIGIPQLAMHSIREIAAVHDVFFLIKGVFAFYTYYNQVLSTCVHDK

**Q.** What does the source list for C1COCCO1.O=C(Nc1nc(-c2ccc(S(=O)(=O)N3CCOCC3)cc2)cs1)c1ccccc1?
**A.** AC50 [1]: 42 µM (active); AC50 [2]: 36.7 µM (active); EC50 (Estrogen receptor): 15.1 µM (active); AC50 [3]: 44.3 µM (active); AC50 [4]: > 52 µM (inactive)

**Q.** With O=C(O)c1cccc(-c2ccc(/C=N/Nc3ccc([N+](=O)[O-])cn3)o2)c1 as the molecule, how does the EC50 (Bcl-2-like protein 10) read?
**A.** The EC50 was 9.64 µM (active).

**Q.** For Cc1cc(C(=O)Cn2ncc(Cl)c(Cl)c2=O)c(C)n1CC(F)(F)F, which CC50 (HeLa) is on record?
**A.** Its CC50 is > 11 µM (not active).

**Q.** And the EC50 [5]?
**A.** The EC50 was 3.03 µM (active).

**Q.** What about the AC50 [6] of the same molecule?
**A.** The AC50 was 3.01 µM (active).

**Q.** And the EC50 [7]?
**A.** Its EC50 is 2.06 µM (active).

**Q.** What about the EC50 (Protein RecA) of the same molecule?
**A.** The EC50 was 2.72 µM (active).

**Q.** What about the IC50 [8] of the same molecule?
**A.** Its IC50 is 20.9 µM (active).

**Q.** For CC1(C)CC(=O)c2c(oc3cc(O)c(O)cc23)C1, which IC50 (Aspartyl aminopeptidase) is on record?
**A.** The IC50 was 1.25 µM (active).

**Q.** And the IC50 (Procathepsin L)?
**A.** Its IC50 is > 59.6 µM (not active).

**Q.** And the AC50 (Cytochrome P450 3A4)?
**A.** Its AC50 is 31.6 µM (inconclusive).
